The source made the active and inactive calls. The rule behind the calls is not given here.
Columns and labels:
[1] = system: A-375; assay: Cytotoxicity against human A375 cells after 48 hrs by MTT assay; assay type: functional, cell-based; settings: A-375, 48 h
[2] = system: HT-29; assay: Cytotoxicity against human HT-29 cells after 48 hrs by MTT assay; assay type: functional, cell-based; settings: HT-29, 48 h, read-out: IC50
[3] = system: ACHN; assay: Cytotoxicity against human ACHN cells after 48 hrs by MTT assay; assay type: functional, cell-based
[4] = system: A549; assay: cells; settings: Homo sapiens, A549, 48 h
Description: Cytotoxicity against human A549 cells after 48 hrs by MTT assay

[5] = system: MCF7; assay: cells; settings: Homo sapiens, MCF7, 48 h
Description: Cytotoxicity against human MCF7 cells after 48 hrs by MTT assay

[6] = molecular target: Tubulin (Homo sapiens) (UniProt P68371+Q9H4B7+P0DPH7+P68366+Q13509+Q71U36+P04350+Q3ZCM7+P07437+P68363+Q9BQE3+Q6PEY2+Q13885+Q9BVA1+Q9BUF5); assay: Inhibition of tubulin polymerization in human A549 cells assessed as disrupted microtubule organization at 2 uM after 48 hrs by immunohistochemistry analysis; assay type: cell-based

| IC50 [4] | IC50 [5] | inhibition [6] | SMILES | IC50 [1] | IC50 [2] | IC50 [3] |
| --- | --- | --- | --- | --- | --- | --- |
| 5.1 µM | 2.5 µM | – | COc1ccc(/C=C/C(=O)c2cc(OC)c(OC)c(OC)c2)cc1OCC(=O)Nc1nc2c(C)cccc2s1 | 2.8 µM | 6.1 µM | 3.8 µM |
| – | – | Active | COc1ccc(/C=C/C(=O)c2cc(OC)c(OC)c(OC)c2)cc1OCC(=O)Nc1nc2ccccc2s1 | – | – | – |

Source: ChEMBL document CHEMBL2034833, “Synthesis of chalcone-amidobenzothiazole conjugates as antimitotic and apoptotic inducing agents” (Bioorg Med Chem, 2012)
